*1 amine or outer side, *2 acyl side, *3 side chain or, on linkers, in order; H or OH if unused. Where a SMILES comes first, the peptide text is derived from it. Side-chain parts run from the residue outwards. [ ]: non-standard residue; d: D form. The star is where a group is joined. C20 diacid = O=C(O)CCCCCCCCCCCCCCCCCCC(=O)*; γGlu = O=C(O)[C@H](CCC(=O)[*:2])N[*:1]; εLys = N[C@@H](CCCCN[*:1])C(=O)[*:2]; AEEA = NCCOCCOCC(=O)O; Aib = CC(C)(N)C(=O)O
Legend:
Assay in all cases: Receptor activation: cAMP production by CRE-luciferase reporter in stably transfected BHK cells
Type in all cases: cell-based
hGLP-1 Receptor = target: T1, hGLP-1 Receptor (Homo sapiens, UniProt P43220); conditions: for hGLP-1 Receptor Relative Potency %: compared to the native ligand for the receptor
T1 construct: expressed in transfected cells; host or cells: baby hamster kidney (BHK) cells, stably transfected, with CRE-firefly luciferase reporter
T1 sequence (P43220 24-463): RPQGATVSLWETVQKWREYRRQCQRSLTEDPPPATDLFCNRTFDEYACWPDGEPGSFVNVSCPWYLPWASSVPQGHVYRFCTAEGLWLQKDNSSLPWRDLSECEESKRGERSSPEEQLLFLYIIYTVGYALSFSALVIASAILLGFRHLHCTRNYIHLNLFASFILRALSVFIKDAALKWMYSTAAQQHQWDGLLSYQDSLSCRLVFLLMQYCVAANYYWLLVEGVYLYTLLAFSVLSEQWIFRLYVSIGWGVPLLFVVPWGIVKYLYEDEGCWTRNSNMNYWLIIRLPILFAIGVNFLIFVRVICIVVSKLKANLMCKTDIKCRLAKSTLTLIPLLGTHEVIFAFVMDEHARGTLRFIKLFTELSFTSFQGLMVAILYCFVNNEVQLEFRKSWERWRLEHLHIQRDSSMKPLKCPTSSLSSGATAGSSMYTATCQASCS
Method: (§1) Cyclic AMP (cAMP) production was assessed as a proxy for receptor activation using stably transfected baby hamster kidney (BHK) cell lines expressing the DNA for one individual receptor (GLP-1R, GIPR, GcgR; human- or mouse-specific sequence) and the DNA for the firefly luciferase reporter gene linked to the cAMP response element (CRE). The cells were kept in continuous culture at 37 °C and 5% CO2 in Dulbecco's Modified Eagle Medium (DMEM) supplemented with 10% heat-inactivated fetal bovine serum (HI-FBS), 300 μg/mL hygromycin, and 500 μg/mL G418; for cell lines expressing GIPR, the G418 concentration was lowered to 400 μg/mL. Cells were plated in a 96-well poly-D-lysine-coated plate at 5,000 cells per well in growth media and incubated overnight at 37 °C with 5% CO2. After the overnight incubation, the media was removed, the plate was washed once in Dulbecco's phosphase-buffered saline (DPBS), and 50 μL of assay buffer (DMEM without phenol red, 10 mM HEPES, 1x Glutamax, 1% ovalbumin, 0.1% Pluronic F-68) was added to each well. […] Aliquots of the dilution curves were added to the cell plate in a volume of 50 μL per well resulting in final assay concentrations ranging from 1 × 10^−14 to 1 × 10^−7 M. The assay plate was incubated for 3 h at 37 °C and 5% CO2. After the incubation, the assay plate was washed once with DPBS. A 100 μL aliquot of DPBS was added to each well followed by 100 μL of steadylite plus reagent (PerkinElmer). The assay plate was covered to protect reagent from light, shaken at 250 rpm at room temperature for 30 min, and read in a microtiter plate reader. EC50 values were calculated using Prism software (GraphPad) with the nonlinear regression log(agonist) vs. response. A minimum of two replicates were measured for each sample.

hGcg Receptor = target: T2, hGcg Receptor (Homo sapiens, UniProt P47871); conditions: for hGcg Receptor Relative Potency %: compared to the native ligand for the receptor
T2 construct: expressed in transfected cells; host or cells: baby hamster kidney (BHK) cells, stably transfected, with CRE-firefly luciferase reporter
T2 sequence (P47871 26-477): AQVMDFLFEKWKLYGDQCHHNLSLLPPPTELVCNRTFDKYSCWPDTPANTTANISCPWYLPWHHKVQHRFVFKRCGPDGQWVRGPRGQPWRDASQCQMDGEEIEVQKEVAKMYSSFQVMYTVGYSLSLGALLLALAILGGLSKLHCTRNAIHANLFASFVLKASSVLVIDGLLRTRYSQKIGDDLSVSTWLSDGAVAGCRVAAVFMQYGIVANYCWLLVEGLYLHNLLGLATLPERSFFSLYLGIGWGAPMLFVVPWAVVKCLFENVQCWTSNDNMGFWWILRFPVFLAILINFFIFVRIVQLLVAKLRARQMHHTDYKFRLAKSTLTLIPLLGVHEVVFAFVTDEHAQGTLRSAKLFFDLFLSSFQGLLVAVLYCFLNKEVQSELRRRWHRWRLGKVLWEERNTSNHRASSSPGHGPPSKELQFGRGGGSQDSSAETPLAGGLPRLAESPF
Method: as §1

hGIP Receptor = target: T3, hGIP Receptor (Homo sapiens, UniProt P48546); conditions: for hGIP Receptor Relative Potency %: compared to the native ligand for the receptor
T3 construct: expressed in transfected cells; host or cells: baby hamster kidney (BHK) cells, stably transfected, with CRE-firefly luciferase reporter
T3 sequence (P48546 22-466): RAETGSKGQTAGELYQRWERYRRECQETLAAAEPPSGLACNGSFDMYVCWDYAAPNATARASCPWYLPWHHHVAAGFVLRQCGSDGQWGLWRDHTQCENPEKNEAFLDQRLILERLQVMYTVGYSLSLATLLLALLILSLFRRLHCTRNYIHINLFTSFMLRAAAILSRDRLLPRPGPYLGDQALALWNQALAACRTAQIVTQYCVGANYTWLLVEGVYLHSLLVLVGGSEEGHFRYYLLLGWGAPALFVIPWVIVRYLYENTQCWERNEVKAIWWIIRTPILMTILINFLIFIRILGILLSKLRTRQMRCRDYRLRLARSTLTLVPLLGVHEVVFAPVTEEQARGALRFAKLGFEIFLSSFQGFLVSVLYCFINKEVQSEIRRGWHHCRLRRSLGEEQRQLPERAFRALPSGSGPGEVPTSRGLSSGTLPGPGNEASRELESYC
Method: as §1

SMILES: CC[C@H](C)[C@H](NC(=O)[C@H](CO)NC(=O)[C@H](Cc1ccc(O)cc1)NC(=O)[C@H](CC(=O)O)NC(=O)[C@H](CO)NC(=O)[C@@H](NC(=O)[C@H](Cc1ccccc1)NC(=O)[C@@H](NC(=O)CNC(=O)[C@H](CCC(N)=O)NC(=O)C(C)(C)NC(=O)[C@@H](N)Cc1ccc(O)cc1)[C@@H](C)O)[C@@H](C)O)C(=O)N[C@@H](Cc1ccc(O)cc1)C(=O)N[C@@H](CC(C)C)C(=O)N[C@@H](CCC(=O)O)C(=O)N[C@@H](CCCCNC(=O)[C@@H](N)CCCCNC(=O)[C@@H](N)CCCCNC(=O)CC[C@H](NC(=O)CCCCCCCCCCCCCCCCCCC(=O)O)C(=O)O)C(=O)N[C@@H](CCC(N)=O)C(=O)N[C@@H](C)C(=O)N[C@@H](C)C(=O)NC(C)(C)C(=O)N[C@@H](CCC(=O)O)C(=O)N[C@@H](Cc1ccccc1)C(=O)N[C@H](C(=O)N[C@@H](CCC(N)=O)C(=O)N[C@@H](Cc1c[nH]c2ccccc12)C(=O)N[C@@H](CC(C)C)C(=O)N[C@@H](CC(C)C)C(=O)N[C@@H](CCC(=O)O)C(=O)NCC(=O)NCC(=O)N1CCC[C@H]1C(=O)N[C@@H](CO)C(=O)N[C@@H](CO)C(=O)NCC(=O)N[C@@H](C)C(=O)N1CCC[C@H]1C(=O)N1CCC[C@H]1C(=O)N1CCC[C@H]1C(=O)N[C@@H](CO)C(N)=O)C(C)C [Compound 10] (H-Y[Aib]QGTFTSDYSIYLEK([εLys-εLys-γGlu-C20 diacid])QAA[Aib]EFVQWLLEGGPSSGAPPPS-NH2)
- hGLP-1 Receptor Relative Potency % (hGLP-1 Receptor): 244%
- hGcg Receptor Relative Potency % (hGcg Receptor): 11%
- hGIP Receptor Relative Potency % (hGIP Receptor): 150%

SMILES: CC[C@H](C)[C@H](NC(=O)[C@H](CO)NC(=O)[C@H](Cc1ccc(O)cc1)NC(=O)[C@H](CC(=O)O)NC(=O)[C@H](CO)NC(=O)[C@@H](NC(=O)[C@H](Cc1ccccc1)NC(=O)[C@@H](NC(=O)CNC(=O)[C@H](Cc1c[nH]cn1)NC(=O)C(C)(C)NC(=O)[C@@H](N)Cc1c[nH]cn1)[C@@H](C)O)[C@@H](C)O)C(=O)N[C@@H](Cc1ccc(O)cc1)C(=O)N[C@@H](CC(C)C)C(=O)N[C@@H](CCC(=O)O)C(=O)N[C@@H](CCCCNC(=O)[C@@H](N)CCCCNC(=O)[C@@H](N)CCCCNC(=O)CC[C@H](NC(=O)CCCCCCCCCCCCCCCCCCC(=O)O)C(=O)O)C(=O)N[C@@H](CCC(N)=O)C(=O)N[C@@H](C)C(=O)N[C@@H](C)C(=O)NC(C)(C)C(=O)N[C@@H](CCC(=O)O)C(=O)N[C@@H](Cc1ccccc1)C(=O)N[C@H](C(=O)N[C@@H](CCC(N)=O)C(=O)N[C@@H](Cc1c[nH]c2ccccc12)C(=O)N[C@@H](CC(C)C)C(=O)N[C@@H](CC(C)C)C(=O)N[C@@H](CCC(=O)O)C(=O)NCC(=O)NCC(=O)N1CCC[C@H]1C(=O)N[C@@H](CO)C(=O)N[C@@H](CO)C(=O)NCC(=O)N[C@@H](C)C(=O)N1CCC[C@H]1C(=O)N1CCC[C@H]1C(=O)N1CCC[C@H]1C(=O)N[C@@H](CO)C(N)=O)C(C)C [Compound 13] (H-H[Aib]HGTFTSDYSIYLEK([εLys-εLys-γGlu-C20 diacid])QAA[Aib]EFVQWLLEGGPSSGAPPPS-NH2)
- hGLP-1 Receptor Relative Potency % (hGLP-1 Receptor): 340%
- hGcg Receptor Relative Potency % (hGcg Receptor): 19%
- hGIP Receptor Relative Potency % (hGIP Receptor): 146%

SMILES: CC[C@H](C)[C@H](NC(=O)[C@H](CO)NC(=O)[C@H](Cc1ccc(O)cc1)NC(=O)[C@H](CC(=O)O)NC(=O)[C@H](CO)NC(=O)[C@@H](NC(=O)[C@H](Cc1ccccc1)NC(=O)[C@@H](NC(=O)CNC(=O)[C@H](CCC(N)=O)NC(=O)C(C)(C)NC(=O)[C@@H](N)Cc1ccc(O)cc1)[C@@H](C)O)[C@@H](C)O)C(=O)N[C@@H](Cc1ccc(O)cc1)C(=O)N[C@@H](CC(C)C)C(=O)N[C@@H](CCC(=O)O)C(=O)N[C@@H](CCCCNC(=O)COCCOCCNC(=O)COCCOCCNC(=O)CC[C@H](NC(=O)CCCCCCCCCCCCCCCCCCC(=O)O)C(=O)O)C(=O)N[C@@H](CCC(N)=O)C(=O)N[C@@H](C)C(=O)N[C@@H](C)C(=O)NC(C)(C)C(=O)N[C@@H](CCC(=O)O)C(=O)N[C@@H](Cc1ccccc1)C(=O)N[C@H](C(=O)N[C@@H](CCC(N)=O)C(=O)N[C@@H](Cc1c[nH]c2ccccc12)C(=O)N[C@@H](CC(C)C)C(=O)N[C@@H](CC(C)C)C(=O)N[C@@H](CCC(=O)O)C(=O)NCC(=O)NCC(=O)N1CCC[C@H]1C(=O)N[C@@H](CO)C(=O)N[C@@H](CO)C(=O)NCC(=O)N[C@@H](C)C(=O)N1CCC[C@H]1C(=O)N1CCC[C@H]1C(=O)N1CCC[C@H]1C(=O)N[C@@H](CO)C(N)=O)C(C)C [Compound 9] (H-Y[Aib]QGTFTSDYSIYLEK([AEEA-AEEA-γGlu-C20 diacid])QAA[Aib]EFVQWLLEGGPSSGAPPPS-NH2)
- EC50 (hGLP-1 Receptor; BHK cells expressing human GLP-1R and CRE-luciferase, 12-point curve, 3 h, 37 °C, assay buffer with 1% ovalbumin, minimum of two replicates): 0.0031 nM
- hGLP-1 Receptor Relative Potency % (hGLP-1 Receptor): 220%
- EC50 (hGcg Receptor; BHK cells expressing human GcgR and CRE-luciferase, 12-point curve, 3 h, 37 °C, assay buffer with 1% ovalbumin, minimum of two replicates): 0.185 nM
- hGcg Receptor Relative Potency % (hGcg Receptor): 5%
- EC50 (hGIP Receptor; BHK cells expressing human GIPR and CRE-luciferase, 12-point curve, 3 h, 37 °C, assay buffer with 1% ovalbumin, minimum of two replicates): 0.0114 nM
- hGIP Receptor Relative Potency % (hGIP Receptor): 92%

SMILES: CC[C@H](C)[C@H](NC(=O)[C@H](CO)NC(=O)[C@H](Cc1ccc(O)cc1)NC(=O)[C@H](CC(=O)O)NC(=O)[C@H](CO)NC(=O)[C@@H](NC(=O)[C@H](Cc1ccccc1)NC(=O)[C@@H](NC(=O)CNC(=O)[C@H](Cc1c[nH]cn1)NC(=O)C(C)(C)NC(=O)[C@@H](N)Cc1c[nH]cn1)[C@@H](C)O)[C@@H](C)O)C(=O)N[C@@H](Cc1ccc(O)cc1)C(=O)N[C@@H](CC(C)C)C(=O)N[C@@H](CCC(=O)O)C(=O)N[C@@H](CCCCNC(=O)[C@@H](N)CCCCNC(=O)[C@@H](N)CCCCNC(=O)CC[C@H](NC(=O)CCCCCCCCCCCCCCCCCCC(=O)O)C(=O)O)C(=O)N[C@@H](CCC(N)=O)C(=O)N[C@@H](Cc1ccc(O)cc1)C(=O)N[C@@H](C)C(=O)NC(C)(C)C(=O)N[C@@H](CCC(=O)O)C(=O)N[C@@H](Cc1ccccc1)C(=O)N[C@H](C(=O)N[C@@H](CCC(N)=O)C(=O)N[C@@H](Cc1c[nH]c2ccccc12)C(=O)N[C@@H](CC(C)C)C(=O)N[C@@H](CC(C)C)C(=O)N[C@@H](CCC(=O)O)C(=O)NCC(=O)NCC(=O)N1CCC[C@H]1C(=O)N[C@@H](CO)C(=O)N[C@@H](CO)C(=O)NCC(=O)N[C@@H](C)C(=O)N1CCC[C@H]1C(=O)N1CCC[C@H]1C(=O)N1CCC[C@H]1C(=O)N[C@@H](CO)C(N)=O)C(C)C [Compound 15] (H-H[Aib]HGTFTSDYSIYLEK([εLys-εLys-γGlu-C20 diacid])QYA[Aib]EFVQWLLEGGPSSGAPPPS-NH2)
- hGLP-1 Receptor Relative Potency % (hGLP-1 Receptor): 101%
- hGcg Receptor Relative Potency % (hGcg Receptor): 72%
- hGIP Receptor Relative Potency % (hGIP Receptor): 135%
